Experimental findings from patent US5166204A, “Isoindole derivatives and salts thereof and antitumor agent comprising the same” (Toyama Chemical Co., Ltd., priority 1989, dated 1992) are described below.

In assay [1] the test system is Ehrlich solid cancer. Description: Effect on Ehrlich solid cancer (tumor weight in mice). The class given is in vivo, ddY strain mice. As to conditions: Mus musculus, iv, 240 h; for response vs control in vivo at 50 mg/kg: 50 mg/kg i.v.; for response vs control in vivo at 7 mg/kg: 7 mg/kg i.v.; for response vs control in vivo at 10 mg/kg: 10 mg/kg i.v.; for response vs control in vivo at 14 mg/kg: 14 mg/kg i.v. On the procedure: (c) Effect on Ehrlich Solid Cancer 5×10^6 Ehrlich cells were transplanted to ddY strain mice in groups of 7 members (male, 5-week old, weight=about 25 g) subcutaneously at the left groin on day 0. […] Only the aqueous 5% glucose solution was administered to the control group. […] From the (a) and (b) was calculated T/C (%), using the following equation: T/C (%)=(a/b)×100

For assay [2], the system named is HeLa S-3 cells. Description: HeLa S-3 cell growth inhibition test. The class given is cell-based. As to conditions: Homo sapiens, 96 h; HeLa S-3 cells, 37° C., 4 days, Giemsa's staining; read-out: minimum growth inhibition concentration (MIC). On the procedure: (a) HeLa S-3 Cell Growth Inhibition Test
A test compound was appropriately diluted with a liquid medium (a minimum essential medium containing a 10% fecal calf serum). The resulting liquid was poured into each well of a 96-well micro titer plate, in an amount of 0.1 ml/well. Then, HeLa S-3 cells were diluted with the same liquid medium so that the cell concentration became 2×10^4 cells/ml, and the resulting liquid was poured into each well of the above plate in an amount of 0.1 ml/well. The resulting plate was allowed to stand in a CO2 gas incubator of 37° C. for 4 days, to effect incubation. After the incubation, the supernatant liquid in each well was removed and fixation by ethanol was effected for 10 minutes. The fixed cells were tinted with a Giemsa's staining solution to determine the minimum growth inhibition concentration (MIC) of test compound for HeLa S-3 cells.

In assay [3] the test system is L-1210 ascites tumor. Description: Effect on L-1210 ascites tumor (survival of tumor-transplanted mice). The assay is classed as in vivo, CDF1 strain mice. As to conditions: Mus musculus, L1210, ip, 720 h, survival observed 30 days, read-out: prolongation of survival time T/C; for response vs control in vivo at 25 mg/kg: 25 mg/kg i.p.; for response vs control in vivo at 5 mg/kg: 5 mg/kg i.p.; for response vs control in vivo at 1 mg/kg: 1 mg/kg i.p. As to the method:
(b) Effect on L-1210 Ascites Tumor
1×10^5 L-1210 cells were intraperitoneally transplanted to CDF1 strain mice in groups of 6 members (male, 5-week old, weight =about 25 g) on day 0. A test compound dissolved in an aqueous 5% glucose solution was intraperitoneally administered to the test group of the above mice twice on day 1 and day 5. Only the aqueous 5% glucose solution was administered to the control group. Incidentally, the 25 mg/kg administration of the test compound No. 30 was effected only once on day 1. There were examined (a) the average survival days of the test group and (b) the average survival days of the control group. The examination period for survival days was 30 days. From the (a) and (b) was calculated a prolongation of survival time [T/C (%)], using the following equation: […]

[4] abbreviates: only once on day 1, day 10, read-out: T/C (average tumor weight, treated/control).
[5] abbreviates: twice on day 1 and day 5, day 10, read-out: T/C (average tumor weight, treated/control).

≈ marks a conversion by molar mass, not a printed value. Counter-ions that a name gives are not always drawn. Like-named read-outs stand apart in the source and are kept apart here. Some results are limits rather than exact numbers.

In the case of `CN(C)CCN1C(=O)c2ccc3[nH]c4ccccc4c3c2C1=O` [compound 1], in assay [1] (daily for six consecutive days (day 1 to 6), day 10, read-out: T/C (average tumor weight, treated/control)), the response vs control in vivo at 50 mg/kg was determined as 18%. The MIC in assay [2] is 3.13 µg/mL (≈ 10.2 µM). Moreover, the response vs control in vivo at 25 mg/kg in assay [3] (twice on day 1 and day 5) came out at 137%.
Regarding `Cc1cc2c(c3c1[nH]c1ccccc13)C(=O)N(CCN(C)C)C2=O` [compound 2], the MIC in assay [2] is 0.16 µg/mL (≈ 0.498 µM). Also, the response vs control in vivo at 5 mg/kg in assay [3] (twice on day 1 and day 5) was determined as 180%.
`Cc1cc2[nH]c3ccccc3c2c2c1C(=O)N(CCN(C)C)C2=O` [compound 3]: in assay [2], the MIC is 0.1 µg/mL (≈ 0.311 µM). The response vs control in vivo at 25 mg/kg in assay [3] (twice on day 1 and day 5) was determined as 167%.
On the same counts, the results for `CN(C)CCN1C(=O)c2ccc3[nH]c4ccc(Cl)cc4c3c2C1=O` [compound 9] are 3.13 µg/mL (≈ 9.16 µM) and 131%.
The corresponding values for `COc1ccc2[nH]c3ccc4c(c3c2c1)C(=O)N(CCN(C)C)C4=O` [compound 15] are 3.13 µg/mL (≈ 9.28 µM) and 160%.
For the compound `COc1ccc2[nH]c3cc(C)c4c(c3c2c1)C(=O)N(CCN(C)C)C4=O` [compound 17], in assay [2], the MIC was 0.16 µg/mL (≈ 0.455 µM). Moreover, in assay [3] (twice on day 1 and day 5), the response vs control in vivo at 5 mg/kg is 126% and the response vs control in vivo at 25 mg/kg is 129%.
The corresponding values for `CN(C)CCN1C(=O)c2ccc3[nH]c4cc5c(cc4c3c2C1=O)OCO5` [compound 22] are 0.16 µg/mL (≈ 0.455 µM), 143% and 160%.
Turning to `CN(C)CCN1C(=O)c2ccc3[nH]c4ccc(O)cc4c3c2C1=O.Cl` [compound 23, N-(2-dimethylaminoethyl)-6-hydroxycarbazole-3,4-dicarboximide hydrochloride], the response vs control in vivo at 15 mg/kg in assay [1] (15 mg/kg i.v., twice on day 1 and day 5, day 10, read-out: T/C (average tumor weight, treated/control)) is 10%. Besides, the MIC in assay [2] was 0.8 µg/mL. Also, in assay [3] (twice on day 1 and day 5), the response vs control in vivo at 1 mg/kg was determined as 128% and the response vs control in vivo at 5 mg/kg was greater than 272%.
As to `Cc1cc2c(c3c1[nH]c1ccc(O)cc13)C(=O)N(CCN(C)C)C2=O.Cl` [compound 24, N-(2-dimethylaminoethyl)-6-hydroxy-1-methylcarbazole-3,4-dicarboximide hydrochloride], in assay [1] (5 mg/kg i.v., twice on day 1 and day 5, day 10, read-out: T/C (average tumor weight, treated/control)), the response vs control in vivo at 5 mg/kg came to 12%. For the same compound, the MIC in assay [2] is 0.125 µg/mL. The response vs control in vivo at 1 mg/kg in assay [3] (twice on day 1 and day 5) is greater than 377%.
Turning to `CN(C)CCN1C(=O)c2cc(-c3ccccc3)c3[nH]c4ccc(O)cc4c3c2C1=O` [compound 27], in assay [1] (30 mg/kg i.v., twice on day 1 and day 5, day 10, read-out: T/C (average tumor weight, treated/control)), the response vs control in vivo at 30 mg/kg was 15%. Also, the MIC in assay [2] was 0.31 µg/mL (≈ 0.776 µM).
For the compound `CN(C)CCN1C(=O)c2ccc3[nH]c4cc(O)ccc4c3c2C1=O` [compound 28], in assay [2], the MIC worked out at 0.8 µg/mL (≈ 2.47 µM). In addition, in assay [3] (twice on day 1 and day 5), the response vs control in vivo at 5 mg/kg worked out at 176% and the response vs control in vivo at 25 mg/kg was found to be 379%.
Turning to `CN(C)CCN1C(=O)c2ccc3c(c2C1=O)c1cc(O)ccc1n3C` [compound 30], the MIC in assay [2] was 0.1 µg/mL (≈ 0.296 µM). In assay [3] (twice on day 1 and day 5), the response vs control in vivo at 5 mg/kg is 156%. The response vs control in vivo at 25 mg/kg in assay [3] (only once on day 1) came out at 172%.
`CN(C)CCN1C(=O)c2ccc3[nH]c4cc(O)c(O)cc4c3c2C1=O` [compound 31]: the response vs control in vivo at 50 mg/kg in assay [1] (setting [4]) was found to be 31%. In addition, in assay [3] (twice on day 1 and day 5), the response vs control in vivo at 5 mg/kg worked out at 176%.
Take `CN(C)CCN1C(=O)c2cc(Cl)c3[nH]c4ccc(O)cc4c3c2C1=O` [compound 32]: the response vs control in vivo at 25 mg/kg in assay [1] (25 mg/kg i.v., only once on day 1, day 10, read-out: T/C (average tumor weight, treated/control)) is 9%. The MIC in assay [2] stood at 0.31 µg/mL (≈ 0.866 µM).
Turning to `COc1cc2c(c3c1[nH]c1ccc(O)cc13)C(=O)N(CCN(C)C)C2=O` [compound 38], in assay [1] (setting [5]), the response vs control in vivo at 7 mg/kg was found to be 12%. Moreover, the MIC in assay [2] was 0.06 µg/mL (≈ 0.17 µM).
With `CCc1cc2c(c3c1[nH]c1ccc(O)cc13)C(=O)N(CCN(C)C)C2=O` [compound 39], in assay [1] (setting [5]), the response vs control in vivo at 10 mg/kg came out at 20%. In assay [2], the MIC was 0.04 µg/mL (≈ 0.114 µM).
As for `CCN(CC)CCN1C(=O)c2cc(C)c3[nH]c4ccc(O)cc4c3c2C1=O.Cl` [compound 42, N-(2-diethylaminoethyl)-6-hydroxy-1-methylcarbazole-3,4-dicarboximide hydrochloride], in assay [1] (setting [5]), the response vs control in vivo at 7 mg/kg turned out to be 18%. The MIC in assay [2] was found to be 0.063 µg/mL.
Take `CN(C)CCN1C(=O)c2cc(C3CC3)c3[nH]c4ccc(O)cc4c3c2C1=O` [compound 49, N-(2-dimethylaminoethyl)-1-cyclopropyl-6-hydroxycarbazole-3,4-dicarboximidehydrochloride]: the response vs control in vivo at 14 mg/kg in assay [1] (setting [5]) came out at 19%. Further, the MIC in assay [2] came out at 0.2 µg/mL.
For `CN(C)CCN1C(=O)c2cc(C3CCC3)c3[nH]c4ccc(O)cc4c3c2C1=O.Cl` [compound 59, N-(2-dimethylaminoethyl)-1-cyclobutyl-6-hydroxycarbazole-3,4-dicarboximide hydrochloride], the response vs control in vivo at 14 mg/kg in assay [1] (setting [5]) worked out at 12%. Further, in assay [2], the MIC is 0.16 µg/mL.
As to `Cc1cc2c(c3c1sc1ccc(O)cc13)C(=O)N(CCN(C)C)C2=O` [compound 61], the response vs control in vivo at 10 mg/kg in assay [1] (setting [4]) amounted to 27%. Moreover, in assay [2], the MIC came to 0.08 µg/mL (≈ 0.226 µM).
`CNCCN1C(=O)c2cc(C)c3[nH]c4ccc(O)cc4c3c2C1=O` [compound 69]: the response vs control in vivo at 10 mg/kg in assay [1] (setting [5]) was found to be 19%. Besides, in assay [2], the MIC came out at 0.25 µg/mL (≈ 0.773 µM).
With `CCN(CC)CCN1C(=O)c2cc(OC)c3[nH]c4ccc(O)cc4c3c2C1=O.Cl` [compound 70, N-(2-diethylaminoethyl)-6-hydroxy-1-methoxycarbazole-3,4-dicarboximide hydrochloride], the response vs control in vivo at 10 mg/kg in assay [1] (setting [5]) amounted to 18%. Further, in assay [2], the MIC was found to be 0.16 µg/mL.
On the same counts, the results for `CCNCCN1C(=O)c2cc(C)c3[nH]c4ccc(O)cc4c3c2C1=O` [compound 71] are 16% and 0.16 µg/mL (≈ 0.474 µM).
On the same counts, the results for `CC1CC1c1cc2c(c3c1[nH]c1ccc(O)cc13)C(=O)N(CCN(C)C)C2=O` (stereo not shown) [compound 74] are 19% and 0.16 µg/mL (≈ 0.424 µM).
In the case of `CN(C)CCN1C(=O)c2cc3[nH]c4cccc(F)c4c3cc2C1=O` [compound 96], the MIC in assay [2] was found to be 6.25 µg/mL (≈ 19.2 µM).
Same read-out and setting: as for `Cc1c2c(cc3c1[nH]c1ccccc13)C(=O)N(CCN(C)C)C2=O` [compound 97], the figure is 3.13 µg/mL (≈ 9.74 µM); as for `Cc1c2c(c(C)c3c1[nH]c1ccccc13)C(=O)N(CCN(C)C)C2=O` [compound 98], 0.8 µg/mL (≈ 2.39 µM); as for `COc1ccc2[nH]c3c(C)c4c(c(C)c3c2c1)C(=O)N(CCN(C)C)C4=O` [compound 99], 0.8 µg/mL (≈ 2.19 µM).
Same read-out and setting: as for `Cc1c2c(c(C)c3c1[nH]c1ccc(O)cc13)C(=O)N(CCN(C)C)C2=O` [compound 100], the figure is 2.5 µg/mL (≈ 7.11 µM).
